By EC50 is commonly meant the concentration that produces a half-maximal response.

The results in this text go back to patent publication US20240246964A1 (Arbutus Biopharma Corporation, priority 2021, published 2024).

Bounds are passed on as bounds.

In the assay the target is human PD-L1 (Homo sapiens (Human), UniProt Q9NZQ7). Description: T cell activation luciferase reporter cell culture system (T Cell Activation Assay). Conditions: luciferase reporter assay; PD-L1 aAPC/CHO-K1 cells with PD-1 effector Jurkat T cells. It is filed as cell-based. Background: In a reporter assay the amount or activity of a reporter protein is the signal.
human PD-L1, sequence (Q9NZQ7 19-290): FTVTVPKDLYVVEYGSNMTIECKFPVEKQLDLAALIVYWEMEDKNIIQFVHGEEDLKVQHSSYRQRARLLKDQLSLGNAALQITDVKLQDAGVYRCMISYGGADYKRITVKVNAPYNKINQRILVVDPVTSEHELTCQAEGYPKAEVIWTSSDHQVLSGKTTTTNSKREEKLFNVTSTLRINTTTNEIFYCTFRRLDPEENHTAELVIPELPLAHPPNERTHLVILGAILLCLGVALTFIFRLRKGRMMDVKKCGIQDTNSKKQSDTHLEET
`COc1cc(-c2nccc(-c3cccc(-c4ccc(CNC5CCN(C(C)=O)CC5)c(OC)n4)c3Cl)c2Cl)ccc1CN1CCC[C@H](O)C1` [Example 507, (S)-1-(4-(((6-(2-Chloro-3-(3-chloro-2-(4-((3-hydroxypiperidin-1-yl)methyl)-3-methoxyphenyl)pyridin-4-yl)phenyl)-2-methoxypyridin-3-yl)methyl)amino)piperidin-1-yl)ethan-1-one] yielded an EC50 of 45.2 nM. In turn, `COc1cc(-c2nccc(-c3cccc(-c4ccc(CNC5CCN(C(C)=O)CC5)c(OC)n4)c3Cl)c2Cl)ccc1CN1CCC(CO)CC1` [Example 508, 1-(4-(((6-(2-Chloro-3-(3-chloro-2-(4-((4-(hydroxymethyl)piperidin-1-yl)methyl)-3-methoxyphenyl)pyridin-4-yl)phenyl)-2-methoxypyridin-3-yl)methyl)amino)piperidin-1-yl)ethan-1-one] gave an EC50 of 35.1 nM.

In the case of `COCC(=O)N1CCC(NCc2ccc(-c3cccc(-c4ccnc(-c5ccc(CN6CCC(O)CC6)c(OC)c5)c4Cl)c3Cl)nc2OC)CC1` [Example 510, 1-(4-(((6-(2-Chloro-3-(3-chloro-2-(4-((4-hydroxypiperidin-1-yl)methyl)-3-methoxyphenyl)pyridin-4-yl)phenyl)-2-methoxypyridin-3-yl)methyl)amino)piperidin-1-yl)-2-methoxyethan-1-one], the EC50 was 27 nM.

In turn, `COc1cc(-c2nccc(-c3cccc(-c4ccc(CN5CC6(C5)CN(C(C)=O)C6)c(OC)n4)c3Cl)c2Cl)ccc1CNC1CCOCC1` [Example 511, 1-(6-((6-(2-Chloro-3-(3-chloro-2-(3-methoxy-4-(((tetrahydro-2H-pyran-4-yl)amino)methyl)phenyl)pyridin-4-yl)phenyl)-2-methoxypyridin-3-yl)methyl)-2,6-diazaspiro[3.3]heptan-2-yl)ethan-1-one] came in with an EC50 of 20.7 nM. With `COc1cc(-c2nccc(-c3cccc(-c4ccc(CNC5CCN(C(C)=O)CC5)c(OC)n4)c3Cl)c2Cl)ccc1CNCC1(O)CC1` [Example 512, 1-(4-(((6-(2-Chloro-3-(3-chloro-2-(4-((((1-hydroxycyclopropyl)methyl)amino)methyl)-3-methoxyphenyl)pyridin-4-yl)phenyl)-2-methoxypyridin-3-yl)methyl)amino)piperidin-1-yl)ethan-1-one] the figure was 32.8 nM. In turn, `COc1cc(-c2nccc(-c3cccc(-c4ccc(CNC(C)C)c(OC)n4)c3Cl)c2Cl)ccc1CNC(C)C` [Example 514, N-((6-(2-Chloro-3-(3-chloro-2-(4-((isopropylamino)methyl)-3-methoxyphenyl)pyridin-4-yl)phenyl)-2-methoxypyridin-3-yl)methyl)propan-2-amine] had an EC50 of 94.5 nM. As for `COc1cc(-c2nccc(-c3cccc(-c4ccc(CN[C@H]5CC[C@H](O)CC5)c(OC)n4)c3Cl)c2Cl)ccc1CN1CC2(CNC(=O)C2)C1` [Example 515, 2-(4-(3-Chloro-4-(2-chloro-3-(5-((((1r,4r)-4-hydroxycyclohexyl)-amino)methyl)-6-methoxypyridin-2-yl)phenyl)pyridin-2-yl)-2-methoxybenzyl)-2,6-diazaspiro[3.4]octan-7-one], the figure is 17.8 nM; as for `COc1cc(-c2nccc(-c3cccc(-c4ccc(CN[C@H]5CC[C@@H](O)CC5)c(OC)n4)c3Cl)c2Cl)ccc1CN1CC2(CNC(=O)C2)C1` [Example 516, 2-(4-(3-Chloro-4-(2-chloro-3-(5-((((1s,4s)-4-hydroxycyclohexyl)amino)-methyl)-6-methoxypyridin-2-yl)phenyl)pyridin-2-yl)-2-methoxybenzyl)-2,6-diazaspiro[3.4]octan-7-one], 50.4 nM; as for `COc1cc(-c2nccc(-c3cccc(-c4ccc(CN5CC6(CNC6)C5)c(OC)n4)c3Cl)c2Cl)ccc1CN1CC2(CNC(=O)C2)C1` [Example 520, 2-(4-(4-(3-(5-((2,6-Diazaspiro[3.3]heptan-2-yl)methyl)-6-methoxypyridin-2-yl)-2-chlorophenyl)-3-chloropyridin-2-yl)-2-methoxybenzyl)-2,6-diazaspiro[3.4]octan-7-one], 66.6 nM. With `COc1cc(-c2nccc(-c3cccc(-c4ccc(CN5CC6(CC(O)C6)C5)c(OC)n4)c3Cl)c2Cl)ccc1CN1CC2(CNC(=O)C2)C1` [Example 521, 2-(4-(3-Chloro-4-(2-chloro-3-(5-((6-hydroxy-2-azaspiro[3.3]heptan-2-yl)methyl)-6-methoxypyridin-2-yl)phenyl)pyridin-2-yl)-2-methoxybenzyl)-2,6-diazaspiro[3.4]octan-7-one] the figure was 8.63 nM. As for `COc1cc(-c2ncnc(-c3cccc(-c4ccc(CNC[C@@H]5CCC(=O)N5)c(OC)n4)c3Cl)c2C)ccc1CNC[C@@H]1CCC(=O)N1` [Example 523, (S)-5-((((6-(2-Chloro-3-(6-(3-methoxy-4-(((((S)-5-oxopyrrolidin-2-yl)methyl)amino)methyl)phenyl)-5-methylpyrimidin-4-yl)phenyl)-2-methoxypyridin-3-yl)methyl)amino)methyl)pyrrolidin-2-one], the figure is 92.4 nM; as for `COc1cc(-c2nccc(-c3cccc(-c4ccc(CNC5CCCCC5)c(OC)n4)c3Cl)c2Cl)ccc1CNC1CCCCC1` [Example 524, N-((6-(2-Chloro-3-(3-chloro-2-(4-((cyclohexylamino)methyl)-3-methoxyphenyl)pyridin-4-yl)phenyl)-2-methoxypyridin-3-yl)methyl)cyclohexanamine], 347 nM. Consider `COc1cc(-c2nccc(-c3cccc(-c4ccc(CN5CC6(CCNC6=O)C5)c(OC)n4)c3Cl)c2Cl)ccc1CNC1CCN(C(C)=O)CC1` [Example 525, 2-((6-(3-(2-(4-(((1-Acetylpiperidin-4-yl)amino)methyl)-3-methoxyphenyl)-3-chloropyridin-4-yl)-2-chlorophenyl)-2-methoxypyridin-3-yl)methyl)-2,6-diazaspiro[3.4] octan-5-one], for which the EC50 is 56.7 nM. Compared with the last molecule, the EC50 is about 6.1-fold lower.

The molecule `COc1cc(-c2nccc(-c3cccc(-c4ccc(CN5CC6(CNC(=O)N6)C5)c(OC)n4)c3Cl)c2Cl)ccc1CNC1CCN(C(C)=O)CC1` [Example 526, 2-((6-(3-(2-(4-(((1-Acetylpiperidin-4-yl)amino)methyl)-3-methoxyphenyl)-3-chloropyridin-4-yl)-2-chlorophenyl)-2-methoxypyridin-3-yl)methyl)-2,5,7-triazaspiro[3.4]octan-6-one] registered an EC50 of 30.3 nM.

In turn, `COc1nc(-c2ccnc(-c3cccc4c3CC[C@@H]4Oc3nc(OC)c(CNC4CCN(C(C)=O)CC4)cc3C(F)(F)F)c2Cl)ccc1CNC[C@@H]1CCC(=O)N1` [Example 527, (S)-5-((((2′-((S)-1-((5-(((1-acetylpiperidin-4-yl)amino)methyl)-6-methoxy-3-(trifluoromethyl)pyridin-2-yl)oxy)-2,3-dihydro-1H-inden-4-yl)-3′-chloro-6-methoxy-[2,4′-bipyridin]-5-yl)methyl)amino)methyl)pyrrolidin-2-one] returned an EC50 of 14.4 nM. As to `COc1cc(-c2nccc(-c3cccc(-c4ccc(CNC5CCN(C(C)=O)CC5)c(OC)n4)c3C(F)(F)F)c2Cl)ccc1CNC1CCN(C(C)=O)CC1` [Example 528, 1-(4-(((6-(3-(2-(4-(((1-Acetylpiperidin-4-yl)amino)methyl)-3-methoxyphenyl)-3-chloropyridin-4-yl)-2-(trifluoromethyl)phenyl)-2-methoxypyridin-3-yl)methyl)amino)piperidin-1-yl)ethan-1-one], the EC50 is ≥ 10000 nM.

On to `COc1cc(-c2nccc(-c3cccc(-c4ccc(CN5CC6(CCOCC6)C5)c(OC)n4)c3Cl)c2Cl)ccc1CNC1CCOCC1` [Example 531, N-(4-(4-(3-(5-((7-oxa-2-azaspiro[3.5]nonan-2-yl)methyl)-6-methoxypyridin-2-yl)-2-chlorophenyl)-3-chloropyridin-2-yl)-2-methoxybenzyl)tetrahydro-2H-pyran-4-amine], for which a half-maximal effect (EC50) was put at 41.3 nM. As for `COc1nc(N[C@H]2CCc3c(-c4nccc(-c5ccc6c(CNC[C@@H]7CCC(=O)N7)cn(C)c6n5)c4Cl)cccc32)c(C(F)(F)F)nc1CNC[C@@H]1CCC(=O)N1` [Example 532, (S)-5-((((6-(3-Chloro-2-((S)-1-((6-methoxy-5-(((((S)-5-oxopyrrolidin-2-yl)methyl)amino)methyl)-3-(trifluoromethyl)pyrazin-2-yl)amino)-2,3-dihydro-1H-inden-4-yl)pyridin-4-yl)-1-methyl-1H-pyrrolo[2,3-b]pyridin-3-yl)methyl)amino)methyl)pyrrolidin-2-one], the figure is 143 nM; as for `COc1cc(-c2nccc(-c3cccc(-c4ccc(CNC5CCN(C(=O)CO)CC5)c(OC)n4)c3Cl)c2Cl)ccc1CNC1CCN(C(C)=O)CC1` [Example 533, 1-(4-(((6-(3-(2-(4-(((1-Acetylpiperidin-4-yl)amino)methyl)-3-methoxyphenyl)-3-chloropyridin-4-yl)-2-chlorophenyl)-2-methoxypyridin-3-yl)methyl)amino)piperidin-1-yl)-2-hydroxyethan-1-one], 13.5 nM.

Molecule `COc1cc(-c2nccc(-c3cccc(-c4ccc(CNCCCF)c(OC)n4)c3Cl)c2Cl)ccc1CNCCCF` [Example 534, N-((6-(2-Chloro-3-(3-chloro-2-(4-(((3-fluoropropyl)amino)methyl)-3-methoxyphenyl)pyridin-4-yl)phenyl)-2-methoxypyridin-3-yl)methyl)-3-fluoropropan-1-amine] had an EC50 of 56.7 nM. As to `COc1cc(-c2ncnc(-c3cccc(-c4ccc(CN5CC6(CNC(=O)C6)C5)c(OC)n4)c3Cl)c2C)ccc1CN1CC2(CNC(=O)C2)C1` [Example 535, 2-((6-(2-Chloro-3-(6-(3-methoxy-4-((7-oxo-2,6-diazaspiro[3.4]octan-2-yl)methyl)phenyl)-5-methylpyrimidin-4-yl)phenyl)-2-methoxypyridin-3-yl)methyl)-2,6-diazaspiro[3.4]octan-7-one], the response was half-maximal at 1060 nM (EC50). With `COc1cc(-c2nccc(-c3cccc(-c4ccc(CNC5CCN(C(C)=O)CC5)c(OC)n4)c3Cl)c2Cl)ccc1CNCCCF` [Example 537, 1-(4-(((6-(2-Chloro-3-(3-chloro-2-(4-(((3-fluoropropyl)amino)methyl)-3-methoxyphenyl)pyridin-4-yl)phenyl)-2-methoxypyridin-3-yl)methyl)amino)piperidin-1-yl)ethan-1-one] the figure was 41.6 nM.
